Experimental data: patent US9187431B2, “Substituted phenyl(oxy/thio)alkanol derivatives” (Bayer Intellectual Property GMBH, priority 2009, dated 2015)

Columns and labels:
Phakopsora pachyrhizi = assay: Phakopsora test (soya bean)/protective; type: in vivo, Phakopsora pachyrhizi on soya bean; details: 250 ppm, protective, evaluation 11 days after inoculation
Fusarium graminearum = assay: microbe, parasite or virus in culture; type: cell-based; details: 168 h, read-out: inhibition of DON/AcDON production
Rhizoctonia solani = assay: Rhizoctonia test (rice)/protective; type: in vivo, Rhizoctonia solani on rice; details: 500 ppm active compound, protective, evaluation 4 days after inoculation
Protocol: Rhizoctonia Test (Rice)/Protective [table] To produce a suitable preparation of active compound, 1 part by weight of active compound is mixed with the stated amount of solvent, and the concentrate is diluted with water and the stated amount of emulsifier to the desired concentration. To test for protective activity, young rice plants are sprayed with the preparation of active compound at the stated application rate. 1 day after the treatment, the plants are inoculated with hyphae of Rhizoctonia solani. The plants are then placed in a greenhouse at a relative atmospheric humidity of 100% and a temperature of 25° C.

[1] = system: Abuthilon theophrasti (velvetleaf); assay: Phytoregulatory pre-emergence action, ABUTH; type: in vivo; details: 320 g of a.i./ha, visual assessment after approx. 3 weeks
Protocol: (§1) Phytoregulatory Pre-Emergence Action Seeds of monocotyledonous or dicotyledonous crop plants are placed in wood-fibre pots in sandy loam and covered with soil. […] After the treatment, the pots are placed in a greenhouse and kept under good growth conditions for the test plants. The visual assessment of the suppression of growth in the test plants is carried out after a trial period of approx. 3 weeks by comparison with untreated controls (phytoregulatory activity in percent: 100% activity=maximum inhibition of plant growth, 0% activity=plant growth like that of an untreated control.)

Cochliobolus miyabeanus = assay: Cochliobolus test (rice)/protective; type: in vivo, Cochliobolus miyabeanus on rice; details: 500 ppm active compound, protective, evaluation 7 days after inoculation
[2] = system: Viola tricolor (wild pansy); assay: Phytoregulatory pre-emergence action, VIOTR; type: in vivo; details: 320 g of a.i./ha, visual assessment after approx. 3 weeks
Protocol: as §1

Fusarium proliferatum = assay: microbe, parasite or virus in culture; type: cell-based; details: 120 h, read-out: inhibition of fumonisin FB1 production
Brassica napus (rape) = assay: Phytoregulatory pre-emergence action, BRSNW; type: in vivo; details: 320 g of a.i./ha, visual assessment after approx. 3 weeks
Protocol: as §1

[3] = system: Triticum aestivum (common wheat); assay: Phytoregulatory pre-emergence action, TRZAS; type: in vivo; details: 320 g of a.i./ha, visual assessment after approx. 3 weeks
Protocol: as §1

[4] = system: Setaria viridis (green foxtail); assay: Phytoregulatory pre-emergence action, SETVI; type: in vivo; details: 320 g of a.i./ha, visual assessment after approx. 3 weeks
Protocol: as §1

Pyricularia oryzae = type: in vivo, Pyricularia oryzae on rice; details: 500 ppm active compound, protective, rice, evaluation 7 days after inoculation
[5] = type: physicochemical; details: pH 2.7
Protocol: The log P values were measured according to EEC directive 79/831 Annex V.A8 by HPLC (High Performance Liquid Chromatography) on reversed-phase columns (C 18), using the methods below: [α] The LC-MS determination in the acidic range is carried out at pH 2.7 using the mobile phases 0.1% aqueous formic acid and acetonitrile (contains 0.1% formic acid), linear gradient from 10% acetonitrile to 95% acetonitrile

Row | SMILES | logP [5] | further results
1 | CC(C)(C)C(O)(COc1ccc(Br)cc1F)Cn1cncn1 (stereo not drawn) [Compound 8] | – | efficacy (Phakopsora pachyrhizi): ≥ 80%
2 | Cc1cc(Br)ccc1OCC(O)(c1cncnc1)C(C)(C)C (stereo not drawn) [Compound 12] | – | inhibition at 50 µM (Fusarium graminearum): > 80%; efficacy (Rhizoctonia solani): ≥ 80%; Inhibition of the growth of useful or harmful plants in %, ABUTH [1]: 80%; efficacy (Cochliobolus miyabeanus): ≥ 80%; Inhibition of the growth of useful or harmful plants in %, VIOTR [2]: 90%; inhibition at 50 µM (Fusarium proliferatum): > 80%; Inhibition of the growth of useful or harmful plants in %, BRSNW (Brassica napus (rape)): 60%; Inhibition of the growth of useful or harmful plants in %, TRZAS [3]: 50%; Inhibition of the growth of useful or harmful plants in %, SETVI [4]: 90%; efficacy (Pyricularia oryzae): ≥ 80%
3 | CC(C)(C)C(O)(COc1ccc(Br)c(F)c1F)c1cncnc1 (stereo not drawn) [Compound 13] | – | inhibition at 50 µM (Fusarium graminearum): > 80%; inhibition at 50 µM (Fusarium proliferatum): > 80%
4 | Cc1cc(OCC(O)(Cn2cncn2)C(C)(C)C)ccc1Br (stereo not drawn) [Compound 19] | logP 3.41 ^[a], [M]^+ = 370/372 | –
5 | COc1cc(Br)ccc1OCC(O)(Cn1cncn1)C(C)(C)C (stereo not drawn) [Compound 20] | logP 3.09 ^[a], [M]^+ = 386/388 | –
6 | CC(C)(C)C(O)(COc1c(Cl)cc(Br)cc1Cl)Cn1cncn1 (stereo not drawn) [Compound 21] | logP 4.04 ^[a], [M]^+ = 423.9/426 | –
7 | Cc1cc(Br)ccc1OCC(O)(Cn1cncn1)C(C)(C)C (stereo not drawn) [Compound 22] | logP 3.5 ^[a], [M]^+ = 370/372 | –
8 | Cc1cc(OCC(O)(Cn2cncn2)C(C)(C)C)cc(C)c1Br (stereo not drawn) [Compound 23] | logP 3.85 ^[a], [M]^+ = 384/386 | –
9 | Cc1cc(Br)cc(C)c1OCC(O)(Cn1cncn1)C(C)(C)C (stereo not drawn) [Compound 24] | logP 3.85 ^[a], [M]^+ = 384/386 | –
10 | Cc1cc(Br)cc(Cl)c1OCC(O)(Cn1cncn1)C(C)(C)C (stereo not drawn) [Compound 25] | logP 3.99 ^[a], [M]^+ = 403.9/407 | –
11 | CC(C)(C)C(O)(COc1ccc(Br)cc1Cl)Cn1cncn1 (stereo not drawn) [Compound 26] | logP 3.59 ^[a], [M]^+ = 389.9/393 | –
12 | COc1cc(OCC(O)(Cn2cncn2)C(C)(C)C)ccc1Br (stereo not drawn) [Compound 27] | logP 2.92 ^[a], [M]^+ = 386/388 | –
13 | CC(C)(C)C(O)(COc1c(F)cc(Br)cc1Cl)Cn1cncn1 (stereo not drawn) [Compound 28] | logP 3.76 ^[a], [M]^+ =407.9/411 | –
14 | CC(C)(C)C(O)(COc1cc(F)c(Br)cc1F)Cn1cncn1 (stereo not drawn) [Compound 29] | logP 3.21 ^[a], [M]^+ = 392/394 | –
15 | CC(C)(C)C(O)(COc1ccc(Br)c(F)c1)Cn1cncn1 (stereo not drawn) [Compound 30] | logP 3.13 ^[a], [M]^+ = 374/376 | –
16 | CC(C)(C)C(O)(COc1c(F)cc(Br)cc1F)Cn1cncn1 (stereo not drawn) [Compound 31] | logP 3.37 ^[a], [M]^+ = 392/394 | –
17 | CC(C)(C)C(O)(COc1ccc(Br)c(C(F)(F)F)c1)Cn1cncn1 (stereo not drawn) [Compound 32] | logP 3.59 ^[a], [M]^+ = 424/426 | –

Row | SMILES | logP [5] | further results
18 | CC(C)(C)C(O)(COc1cc(F)c(Br)c(F)c1)Cn1cncn1 (stereo not drawn) [Compound 33] | logP 3.25 ^[a], [M]^+ = 392/394 | –
19 | CC(C)(C)C(O)(COc1ccc(Br)c(F)c1F)Cn1cncn1 (stereo not drawn) [Compound 34] | logP 3.29 ^[a], [M]^+ = 392/394 | –
20 | CC(C)(C)C(O)(COc1ccc(Br)c(OC(F)(F)F)c1)Cn1cncn1 (stereo not drawn) [Compound 35] | logP 3.72^[a], [M]^+ = 440/441 | –
21 | Cc1cc(OCC(O)(Cn2cncn2)C(C)(C)C)c(C)cc1I (stereo not drawn) [Compound 36] | logP 4.15 ^[a], [M]^+ = 430/432 | –
22 | Cc1cc(OCC(O)(Cn2cncn2)C(C)(C)C)cc(C)c1I (stereo not drawn) [Compound 37] | logP 4.04 ^[a], [M]^+ = 430/432 | –
23 | Cc1cc(I)cc(C)c1OCC(O)(Cn1cncn1)C(C)(C)C (stereo not drawn) [Compound 38] | logP 4.04 ^[a], [M]^+ = 430/432 | –
24 | Cc1cc(OCC(O)(Cn2cncn2)C2(C)CC2)cc(C)c1Br (stereo not drawn) [Compound 39] | logP 3.5 ^[a], [M]^+ = 382/384 | –
25 | Cc1cc(Br)cc(Cl)c1OCC(O)(Cn1cncn1)C1(C)CC1 (stereo not drawn) [Compound 40] | logP 3.68 ^[a], [M]^+ = 402/405 | –
26 | CC1(C(O)(COc2ccc(Br)cc2Cl)Cn2cncn2)CC1 (stereo not drawn) [Compound 41] | logP 3.22 ^[a], [M]^+ = 388/391 | –
27 | COc1cc(OCC(O)(Cn2cncn2)C2(C)CC2)ccc1Br (stereo not drawn) [Compound 42] | logP 2.67 ^[a], [M]^+ = 384/386 | –
28 | CC1(C(O)(COc2cc(F)c(Br)c(F)c2)Cn2cncn2)CC1 (stereo not drawn) [Compound 43] | logP 2.95 ^[a], [M]^+ = 390/391 | –
29 | CC1(C(O)(COc2ccc(Br)c(F)c2F)Cn2cncn2)CC1 (stereo not drawn) [Compound 44] | logP 2.95 ^[a], [M]^+ = 390/391 | –
30 | Cc1cc(OCC(O)(Cn2cncn2)C2(C)CC2)c(C)cc1I (stereo not drawn) [Compound 45] | logP 3.76 ^[a], [M]^+ = 428/430 | –
31 | Cc1cc(OCC(O)(Cn2cncn2)C2(C)CC2)cc(C)c1I (stereo not drawn) [Compound 46] | logP 3.68 ^[a], [M]^+ = 428/430 | –
32 | Cc1cc(I)ccc1OCC(O)(Cn1cncn1)C1(C)CC1 (stereo not drawn) [Compound 47] | logP 3.37 ^[a], [M]^+ = 414/416 | –
33 | Cc1cc(OCC(O)(Cn2cncn2)C2(C)CC2)ccc1Br (stereo not drawn) [Compound 48] | logP 3.1 ^[a], [M]^+ = 368/369 | –
34 | CC(C)(C)C(O)(COc1ccc(Cl)cc1Cl)c1cncnc1 (stereo not drawn) [EP-A 0 028 755, Example 5, reference compound] | – | Inhibition of the growth of useful or harmful plants in %, ABUTH [1]: 40%; Inhibition of the growth of useful or harmful plants in %, VIOTR [2]: 90%; Inhibition of the growth of useful or harmful plants in %, BRSNW (Brassica napus (rape)): 60%; Inhibition of the growth of useful or harmful plants in %, TRZAS [3]: 40%; Inhibition of the growth of useful or harmful plants in %, SETVI [4]: 80%
